# Test results reported in paper PMC3585277, “The C-Terminal Region Mesd Peptide Mimics Full-Length Mesd and Acts as an Inhibitor of Wnt/β-Catenin Signaling in Cancer Cells” (PLoS ONE, 2013).
# Key:
# HS578T cells [1] = assay: Cell viability, Cell Titer Glo Assay, HS578T cells; type: cell-based, human
# Procedure: (§1) Cell viability was measured in 96-well plates by the Cell Titer Glo Assay (Promega), which is a luminescent assay that is an indicator of live cells as a function of metabolic activity and ATP content.
# Wnt/β-catenin signaling [2] = assay: Super8XTOPFlash luciferase reporter assay, HEK293 cells (Figure S1, S2); type: cell-based, human; conditions: 24 h, peptide 8 µM in Figure S1
# Procedure: (§2) Cells were plated into 24-well plates. After overnight culture, the cells were transiently transfected with the TOPFlash or Super8XTOPFlash luciferase construct, β-galactosidase-expressing vector, and pcDNA3.1C-Myc-hLRP5, pCS-Myc-hLRP6 or control vector. After 24 h incubation, cells were treated with Mesd, Mesd peptide, Rspo1 and Wnt3A CM. Cells were then lysed 24 h later and both luciferase and β-galactosidase activities were determined. The luciferase activity was normalized to the β-galactosidase activity.
# Supplementary file pone.0058102.s001.tif: Figure S1 Human Mesd C-terminal region peptide blocks Wnt/β-catenin signaling induced by LRP6, Wnt3A and Rspo1 in HEK293 cells. […] The luciferase activity was then measured 24 h later with normalization to the activity of the β-galactosidase. […]
# Supplementary file pone.0058102.s002.tif: Figure S2 Mesd blocks Wnt1- or Wnt10b-induced Wnt/β-catenin signaling in HEK293 cells. […] The luciferase activity was then measured 24 h later with normalization to the activity of the β-galactosidase. […] The levels of cytosolic free β-catenin, and total cellular Wnt1, Wnt10b, β-catenin, LRP6, Axin2, cyclin D1 and phosphorylated LRP6 were then analyzed by Western blotting. […]
# Wnt/β-catenin signaling [3] = assay: Super8XTOPFlash luciferase reporter assay, PC-3 cells; type: cell-based, human; conditions: 24 h treatment
# Procedure: as §2
# Wnt/β-catenin signaling [4] = assay: Super8XTOPFlash luciferase reporter assay, HS578T cells; type: cell-based, human; conditions: 24 h treatment
# Procedure: as §2
# Wnt/β-catenin signaling [5] = assay: Western blot / GST-E-cadherin binding assay of Wnt/β-catenin signaling markers, PC-3 cells; type: cell-based, human
# Procedure: (§3) Cells in 6-well plates were lysed in 0.5 ml of lysis buffer (phosphate-buffered saline containing 1% Triton X-100 and 1 mM PMSF) at 4°C for 10 min. Equal quantities of protein were subjected to SDS-PAGE under reducing conditions. Following transfer to immobilon-P transfer membrane, successive incubations with anti-HA, anti-Wnt10b, anti-β-catenin, anti-OPG, anti-phosphorylated-LRP6, anti-LRP6, anti-Axin2, anti-Cyclin D1 or anti-actin, and horseradish peroxidase-conjugated secondary antibody were carried out for 60–120 min at room temperature. The immunoreactive proteins were then detected using the ECL system. Films showing immunoreactive bands were scanned by Kodak Digital Science DC120 Zoom Digital Camera.
# (§4) The GST-E-cadherin binding assay was carried out exactly as previously described (9). Uncomplexed cytosolic free β-catenin present in 100 µg of total cell lysate was subjected to SDS-PAGE and detected using the monoclonal antibody to β-catenin.
# Wnt/β-catenin signaling [6] = assay: Western blot / GST-E-cadherin binding assay of Wnt/β-catenin signaling markers, HS578T cells; type: cell-based, human; conditions: 24 h treatment
# Procedure: as §3, §4
# PC-3 cells [7] = assay: Cell proliferation assay (trypan blue exclusion), PC-3 cells; type: cell-based, human; conditions: PC-3, RPMI-1640 2% FBS, 10 days; mMesd 2 µM, hMesd (160–197) 4 µM, control peptide 4 µM; n = 3
# Procedure: (§5) Cells were seeded into 6-well plates at a density of 10000 cells/well. RPMI-1640 or DMEM medium containing 2% FBS was used as assay media. After 16 h incubation, the cells were treated with Mesd or its peptide for 10 days. Media were changed every other day. At the end of the experiment, cells were harvested and counted using the trypan blue exclusion assay.
# HS578T cells [8] = assay: Cell proliferation assay (trypan blue exclusion), HS578T cells; type: cell-based, human; conditions: DMEM 2% FBS, 10 days, mMesd 2 µM, hMesd (160–197) 4 µM, control peptide 4 µM, n = 3
# Procedure: as §5
# PC-3 cells [9] = assay: Cell viability, Cell Titer Glo Assay, PC-3 cells; type: cell-based, human; conditions: Mesd 2 µM or hMesd (160–197) 2 µM with Adriamycin 0.5 µM, 2 days after pre-treatment
# Procedure: as §1
# LRP6 = assay: 125I-Mesd ligand binding assay, LRP6-transduced HT1080 cells; design: species or system human; conditions: for block of Mesd protein binding to LRP6 at the cell surface / concentration at which inhibitory ability on Mesd binding was displayed: 125I-Mesd 5 nM, 4 h at 4°C; for block of Mesd protein binding to LRP6 at the cell surface: LRP6-transduced HT1080 cells; for concentration at which inhibitory ability on Mesd binding was displayed / inhibitory concentration relative to that required for mMesd (155–191): LRP6-expressing cells
# Procedure: (§6) Ligand binding assay was carried out exactly as previously described. Cells (2×10^5) were seeded into 12-well dishes 1 day prior to assay. Ligand-binding buffer (minimal Eagle's medium containing 0.6% BSA with a different concentration of radioligand, 0.6 ml/well) was added to cell monolayers, in the absence or the presence of unlabeled Mesd or its peptide, followed by incubation for 4 h at 4°C. Thereafter, overlying buffer containing unbound ligand was removed, and cell monolayers were washed and lysed in low-SDS lysis buffer (62.5 mM Tris-HCl pH 6.8, 0.2% SDS, 10% v/glycerol) and counted.
# LRP5 = assay: 125I-Mesd ligand binding assay, LRP5-transfected ldl-7 cells; conditions: for block of Mesd protein binding to LRP5 at the cell surface / concentration at which inhibitory ability on Mesd binding was displayed: 4 h at 4°C; for concentration at which inhibitory ability on Mesd binding was displayed / inhibitory concentration relative to that required for mMesd (155–191): LRP5-expressing cells
# Procedure: as §6
# Wnt/β-catenin signaling [10] = assay: TOPFlash luciferase reporter assay, LRP5-transfected HEK293 cells; type: cell-based, human; conditions: Wnt3A CM 5%, Rspo1 40 ng/ml, mMesd 2 µM, peptide at indicated concentrations, 24 h, normalized to β-galactosidase
# Procedure: as §2
# Wnt/β-catenin signaling [11] = assay: TOPFlash luciferase reporter assay, LRP6-transfected HEK293 cells; type: cell-based, human; conditions: Wnt3A CM 5%, Rspo1 40 ng/ml, mMesd 2 µM, peptide at indicated concentrations, 24 h, normalized to β-galactosidase
# Procedure: as §2
# LRP6 phosphorylation = assay: Western blot of phosphorylated LRP6 in C2C12 cells; type: cell-based, mouse; conditions: C2C12, Wnt3A CM 5%, 6 h; mMesd 0.5 µM, peptide at indicated concentrations
# Procedure: as §3
# OPG expression = assay: Western blot of OPG expression in C2C12 cells; type: cell-based, mouse; conditions: 48 h, mMesd 0.5 µM
# Procedure: as §3
# [12] = peptides at indicated concentrations, Figure 1C
# [13] = 125I-Mesd 5 nM, peptides at indicated concentrations, LRP5-transfected ldl-7 cells, Figure 1C
compound,measurement,setting,value
"COc1cccc2c1C(=O)c1c(O)c3c(c(O)c1C2=O)C[C@@](O)(C(=O)CO)C[C@@H]3O[C@H]1C[C@H](N)[C@H](O)[C@H](C)O1 [Adriamycin, reference compound]",inhibition of cell viability,"HS578T cells [1]; single agent: Mesd protein 2 µM or Adriamycin 0.5 µM, Mesd 4 days pre-treatment, then 2 days, n = 4",69%
"KGGGSKEKNKTKQDKGKKKKEGDLKSRSSKEENRAGNK [hMesd (160–197), human Mesd C-terminal region peptide, corresponding to mMesd (155–191)]","Wnt/β-catenin signaling induced by LRP6, Wnt3A, Rspo1, Wnt1 and Wnt10b",Wnt/β-catenin signaling [2],displayed inhibitory effects
same,Wnt reporter luciferase activity,"Wnt/β-catenin signaling [3]; PC-3, endogenous signaling, indicated concentrations",significantly repressed
same,Wnt reporter luciferase activity induced by Wnt1,Wnt/β-catenin signaling [3]; PC-3 transfected with Wnt1 plasmid,significantly repress
same,Wnt reporter luciferase activity induced by Wnt1,Wnt/β-catenin signaling [4]; HS578T transfected with Wnt1 plasmid,significantly repress
same,Wnt reporter luciferase activity,"Wnt/β-catenin signaling [4]; HS578T, endogenous signaling, indicated concentrations",significantly repressed
same,"levels of cytosolic free β-catenin, LRP6 phosphorylation, Axin2 and cyclin D1","Wnt/β-catenin signaling [5]; PC-3, 24 h treatment",greatly decreased
same,"levels of cytosolic free β-catenin, LRP6 phosphorylation, Axin2 and cyclin D1","Wnt/β-catenin signaling [5]; Wnt1-expressing PC-3, 24 h treatment",greatly decreased
same,"levels of cytosolic free β-catenin, LRP6 phosphorylation, Axin2 and cyclin D1",Wnt/β-catenin signaling [6]; HS578T,greatly decreased
same,"levels of cytosolic free β-catenin, LRP6 phosphorylation, Axin2 and cyclin D1",Wnt/β-catenin signaling [6]; Wnt1-expressing HS578T,greatly decreased
same,cell proliferation,PC-3 cells [7],displayed inhibitory effect
same,cell proliferation,HS578T cells [8],displayed inhibitory effect
same,Adriamycin-induced cytotoxicity,"HS578T cells [1]; Mesd 2 µM or hMesd (160–197) 2 µM with Adriamycin 0.5 µM, 2 days after pre-treatment",potentiate
same,Adriamycin-induced cytotoxicity,PC-3 cells [9],potentiate
mMesd (155–164): Mesd peptide based on the mouse Mesd C-terminal region sequence,block of Mesd protein binding to LRP6 at the cell surface,LRP6; [12],unable to block
same,block of Mesd protein binding to LRP5 at the cell surface,LRP5; [13],unable to block
"mMesd (155–173): Mesd peptide based on the mouse Mesd C-terminal region sequence (GSYAWEIKDFLVSQDRCAE; UniProt Q9ERE7 155-173, looked up, fragment)",block of Mesd protein binding to LRP6 at the cell surface,LRP6; [12],inhibition
same,block of Mesd protein binding to LRP5 at the cell surface,LRP5; [13],inhibition
"mMesd (155–191): shorter mouse Mesd C-terminal region peptide lacking 9 conserved terminal residues of mMesd (150–195) (GSYAWEIKDFLVSQDRCAEVTLEGQMYPGKGGGSKEK; UniProt Q9ERE7 155-191, looked up, fragment)",block of Mesd protein binding to LRP6 at the cell surface,"LRP6; 500 nM peptide, Figure 1B, triple determinations",blocked
same,block of Mesd protein binding to LRP5 at the cell surface,LRP5; 125I-Mesd binding assay with LRP5-expressing cells,blocked
same,"TOPFlash activity induced by LRP5, LRP5 plus Wnt3A, LRP5 plus Rspo1",Wnt/β-catenin signaling [10],blocked
same,"TOPFlash activity induced by LRP6, LRP6 plus Wnt3A, LRP6 plus Rspo1",Wnt/β-catenin signaling [11],blocked
same,Wnt3A-induced endogenous LRP6 phosphorylation,LRP6 phosphorylation,able to suppress
same,OPG expression induced by Rspo1 plus Wnt3A,"OPG expression; C2C12, Rspo1 20 ng/ml, Wnt3A CM 2%, mMesd (155–191) 2 µM",repressed
same,Wnt3A-induced OPG expression,"OPG expression; C2C12, Wnt3A CM 5%, peptide at indicated concentrations",able to suppress
"mMesd (160–169): Mesd peptide based on the mouse Mesd C-terminal region sequence (EIKDFLVSQD; UniProt Q9ERE7 160-169, looked up, fragment)",concentration at which inhibitory ability on Mesd binding was displayed,LRP6,50 µM
same,inhibitory concentration relative to that required for mMesd (155–191),LRP6,100 times
same,concentration at which inhibitory ability on Mesd binding was displayed,LRP5; 125I-Mesd 5 nM,50 µM
same,inhibitory concentration relative to that required for mMesd (155–191),LRP5,100 times
"mMesd (165–182): Mesd peptide based on the mouse Mesd C-terminal region sequence (LVSQDRCAEVTLEGQMYP; UniProt Q9ERE7 165-182, looked up, fragment)",block of Mesd protein binding to LRP6 at the cell surface,LRP6; [12],unable to block
same,block of Mesd protein binding to LRP5 at the cell surface,LRP5; [13],unable to block
"mMesd (174–191): Mesd peptide based on the mouse Mesd C-terminal region sequence (VTLEGQMYPGKGGGSKEK; UniProt Q9ERE7 174-191, looked up, fragment)",block of Mesd protein binding to LRP6 at the cell surface,LRP6; [12],inhibition
same,block of Mesd protein binding to LRP5 at the cell surface,LRP5; [13],inhibition
"mMesd (183–191): Mesd peptide based on the mouse Mesd C-terminal region sequence (GKGGGSKEK; UniProt Q9ERE7 183-191, looked up, fragment)",concentration at which inhibitory ability on Mesd binding was displayed,LRP6,50 µM
same,inhibitory concentration relative to that required for mMesd (155–191),LRP6,100 times
same,concentration at which inhibitory ability on Mesd binding was displayed,LRP5; 125I-Mesd 5 nM,50 µM
same,inhibitory concentration relative to that required for mMesd (155–191),LRP5,100 times
